One data set can be described thus: Solubility in solvent. Type of data set: physicochemical.
Data set [1] can be described thus: Grouping for acidic, neutral and basic. It counts as physicochemical.

Positions of bridges follow the written chain, without caps; N, C: chain ends. Residues, ends and D or L forms follow the SMILES beside them.

Take `CCC(C)C(NC(=O)C(NC(=O)C(CC(N)=O)NC(=O)C(CO)NC(=O)C(Cc1c[nH]cn1)NC(=O)CNC(=O)C(NC(=O)C(Cc1c[nH]c2ccccc12)NC(=O)C1CCC(=O)NCC(=O)NC(CO)C(=O)NC(CCC(N)=O)C(=O)NC(CC(C)C)C(=O)NC(C(C)C)C(=O)NC(Cc2ccc(O)cc2)C(=O)NC(CCCNC(=N)N)C(=O)N1)C(C)C)C(C)C)C(=O)NC(CCCCN)C(=O)N1CCCC1C(=O)O` (stereo not shown) [K01-B0171-B substance] (GSQLVYREWVGHSNVIKP-OH; lactam N-8; configuration not given here): the Solubility in solvent entry in “Solubility in solvent” was “soluble in water, dimethyl sulfoxide (DMSO), methanol and ethanol, and insoluble in acetonitrile, ethyl acetate, chloroform and acetone”. Further, in data set [1], the “Grouping for acidic, neutral and basic” value is recorded as “Weak basic substance”.

Turning to `CCC(C)C(NC(=O)C(NC(=O)C(CC(N)=O)NC(=O)C(CO)NC(=O)C(Cc1c[nH]cn1)NC(=O)CNC(=O)C(NC(=O)C(Cc1c[nH]c2ccccc12)NC(=O)C1CCC(=O)NCC(=O)NC(CO)C(=O)NC(CCC(N)=O)C(=O)NC(CC(C)C)C(=O)NC(C(C)C)C(=O)NC(Cc2ccc(O)cc2)C(=O)NC(CCCNC(=N)N)C(=O)N1)C(C)C)C(C)C)C(=O)NC(CCCCN)C(=O)NCC(=O)N1CCCC1C(=O)N1CCCC1C(=O)O` (stereo not shown) [K01-B0171-C substance] (GSQLVYREWVGHSNVIKGPP-OH; lactam N-8; configuration not given here), the Solubility in solvent result in “Solubility in solvent” is “soluble in water, dimethyl sulfoxide (DMSO), methanol and ethanol, and insoluble in acetonitrile, ethyl acetate, chloroform and acetone”. Moreover, in data set [1], the “Grouping for acidic, neutral and basic” value was “Weak basic substance”.

The values are drawn from US7439225B2, “Substances K01-B0171 and process for producing the same” (The Kitasato Institute, priority 2003, dated 2008).
